From patent US6737383B1, “Herbicidal oxadiazolidines” (priority 1999, dated 2004)

Tests used:
pigweed = test: Test B pre/postemergence pigweed; type: in vivo, Amaranthus retroflexus
How it was run: (§1)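 Response is a visual 0-to-10 score relative to untreated plants, where 0 means no effect and 10 means complete control, taken twelve to sixteen days after application. Treatments went onto soil at planting and onto foliage of 1- to 4-leaf plants, using a surfactant-containing non-phytotoxic solvent.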

purple nutsedge = test: Test B pre/postemergence purple nutsedge; type: in vivo, Cyperus rotundus
How it was run: as §1

blackgrass = test: Test B pre/postemergence blackgrass; type: in vivo, Alopecurus myosuroides
How it was run: as §1

wheat = test: Test B pre/postemergence wheat; type: in vivo, Triticum aestivum
How it was run: as §1

velvetleaf = test: Test B pre/postemergence velvetleaf; type: in vivo, Abutilon theophrasti
How it was run: as §1

rape = test: Test B pre/postemergence rape; type: in vivo, Brassica napus
How it was run: as §1

giant foxtail = test: Test B pre/postemergence giant foxtail; type: in vivo, Setaria faberii
How it was run: as §1

duck salad = test: Test B flood test duck salad; type: in vivo, Heteranthera limosa
How it was run: (§2)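 Each value is a visual injury score relative to controls, with 10 meaning complete control and 0 no effect. Evaluation took place twelve to sixteen days after the 2-leaf-stage plants were treated and kept in the greenhouse.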

crabgrass = test: Test B pre/postemergence crabgrass; type: in vivo, Digitaria sanguinalis
How it was run: as §1

corn = test: Test B pre/postemergence corn; type: in vivo, Zea mays
How it was run: as §1

surinam grass = test: Test B pre/postemergence surinam grass; type: in vivo, Brachiaria decumbens
How it was run: as §1

wild oat = test: Test B pre/postemergence wild oat; type: in vivo, Avena fatua
How it was run: as §1

bedstraw = test: Test B pre/postemergence bedstraw; type: in vivo, Galium aparine
How it was run: as §1

soybean = test: Test B pre/postemergence soybean; type: in vivo, Glycine max
How it was run: as §1

rice = test: Test B flood test rice; type: in vivo, Oryza sativa
How it was run: as §2

bamyardgrass = test: Test B flood test barnyardgrass; type: in vivo, Echinochloa crus-galli
How it was run: as §2

cocklebur = test: Test B pre/postemergence cocklebur; type: in vivo, Xanthium strumarium
How it was run: as §1

smallflower flatsedge = test: Test B flood test smallflower flatsedge; type: in vivo, Cyperus difformis
How it was run: as §2

morningglory = test: Test B pre/postemergence morningglory; type: in vivo, Ipomoea hederacea
How it was run: as §1

sugar beet = test: Test B pre/postemergence sugar beet; type: in vivo, Beta vulgaris
How it was run: as §1

[1] = Preemergence, Rate 62 g/ha, scale of 0 to 10 where 0 is no effect and 10 is complete control
[2] = Preemergence, Rate 250 g/ha, scale of 0 to 10 where 0 is no effect and 10 is complete control
[3] = Preemergence, Rate 500 g/ha, scale of 0 to 10 where 0 is no effect and 10 is complete control
[4] = Rate 125 g/ha, Preemergence, scale of 0 to 10 where 0 is no effect and 10 is complete control
[5] = Rate 500 g/ha, Postemergence, scale 0 to 10, 0 no effect, 10 complete control
[6] = Rate 62 g/ha, Postemergence, scale of 0 to 10 where 0 is no effect and 10 is complete control
[7] = Rate 125 g/ha, Postemergence, scale 0 to 10
[8] = Rate 62 g/ha, headed Pre-emergence (flood test species), scale 0 to 10 (0 no effect, 10 complete control)
[9] = Rate 125 g/ha, Pre-emergence, flood test species, scale 0 to 10 where 0 is no effect and 10 is complete control
[10] = Rate 250 g/ha, Pre-emergence, flood-test species, scale 0 to 10, 0 is no effect, 10 is complete control
[11] = Rate 500 g/ha, Pre-emergence, flood test species, scale 0 to 10 (0 no effect, 10 complete control)

## CC(C)N(C(=O)n1oc(=O)n(CC(=O)OC(C)(C)C)c1=O)c1ccc(F)cc1 [Compound 265]
pigweed; [1]
  Redroot pigweed plant response rating: 0
pigweed; [2]
  Redroot pigweed plant response rating: 0
pigweed; [3]
  Plant response rating, Redroot pigweed: 0
pigweed; [4]
  Redroot pigweed plant response rating: 0
pigweed; Rate 250 g/ha, Postemergence
  Plant response rating (0 to 10; 0 is no effect, 10 is complete control), Redroot pigweed: 3
pigweed; [5]
  Redroot pigweed plant response rating: 4
Purple nutsedge; [1]
  Nutsedge plant response rating: 0
Purple nutsedge; [2]
  Nutsedge plant response rating: 0
Purple nutsedge; [3]
  Plant response rating, Nutsedge: 0
Purple nutsedge; Rate 250 g/ha, Postemergence
  Plant response rating (0 to 10; 0 is no effect, 10 is complete control), Nutsedge: 0
Purple nutsedge; [5]
  Nutsedge plant response rating: 0
blackgrass; [1]
  Blackgrass plant response rating: 0
blackgrass; [2]
  Blackgrass plant response rating: 0
blackgrass; [6]
  Blackgrass plant response rating: 4
blackgrass; [7]
  Blackgrass plant response rating: 4
blackgrass; Rate 250 g/ha, Postemergence
  Plant response rating (0 to 10; 0 is no effect, 10 is complete control), Blackgrass: 5
blackgrass; [5]
  Blackgrass plant response rating: 7
wheat; [1]
  Wheat plant response rating: 0
wheat; [2]
  Wheat plant response rating: 0
wheat; [3]
  Plant response rating, Wheat: 1
wheat; [4]
  Wheat plant response rating: 0
wheat; [5]
  Wheat plant response rating: 0
velvetleaf; [1]
  Velvetleaf plant response rating: 0
velvetleaf; [2]
  Velvetleaf plant response rating: 0
velvetleaf; [3]
  Plant response rating, Velvetleaf: 0
velvetleaf; [4]
  Velvetleaf plant response rating: 0
velvetleaf; [5]
  Velvetleaf plant response rating: 3
rape; [1]
  Rape plant response rating: 0
rape; [2]
  Rape plant response rating: 0
rape; [3]
  Plant response rating, Rape: 0
rape; [4]
  Rape plant response rating: 0
rape; Rate 250 g/ha, Postemergence
  Plant response rating (0 to 10; 0 is no effect, 10 is complete control), Rape: 1
rape; [5]
  Rape plant response rating: 3
Giant foxtail; [1]
  Giant foxtail plant response rating: 6
Giant foxtail; [2]
  Giant foxtail plant response rating: 8
Giant foxtail; [3]
  Plant response rating, Giant foxtail: 10
Giant foxtail; [4]
  Giant foxtail plant response rating: 8
Giant foxtail; Rate 250 g/ha, Postemergence
  Plant response rating (0 to 10; 0 is no effect, 10 is complete control), Giant foxtail: 2
Giant foxtail; [5]
  Giant foxtail plant response rating: 2
Duck salad; [8]
  Ducksalad plant response rating: 0
Duck salad; [9]
  Ducksalad plant response rating: 0
Duck salad; [10]
  Ducksalad plant response rating: 0
Duck salad; [11]
  Ducksalad plant response rating: 0
crabgrass; [1]
  Crabgrass plant response rating: 1
crabgrass; [2]
  Crabgrass plant response rating: 2
crabgrass; [3]
  Plant response rating, Crabgrass: 6
crabgrass; [4]
  Crabgrass plant response rating: 2
crabgrass; Rate 250 g/ha, Postemergence
  Plant response rating (0 to 10; 0 is no effect, 10 is complete control), Crabgrass: 2
crabgrass; [5]
  Crabgrass plant response rating: 3
corn; [1]
  Corn plant response rating: 0
corn; [2]
  Corn plant response rating: 0
corn; [3]
  Plant response rating, Corn: 0
corn; [6]
  Corn plant response rating: 0
corn; [7]
  Corn plant response rating: 0
corn; [4]
  Corn plant response rating: 0
corn; Rate 250 g/ha, Postemergence
  Plant response rating (0 to 10; 0 is no effect, 10 is complete control), Corn: 0
corn; [5]
  Corn plant response rating: 0
Surinam grass; [1]
  B. signalgrass plant response rating: 0
Surinam grass; [2]
  B. signalgrass plant response rating: 0
Surinam grass; [3]
  Plant response rating, B. signalgrass: 4
Surinam grass; [6]
  B. signalgrass plant response rating: 0
Surinam grass; Rate 125 g/ha, Postemergence, scale 0 (no effect) to 10 (complete control)
  B. signalgrass plant response rating: 0
Surinam grass; [4]
  B. signalgrass plant response rating: 0
Surinam grass; Rate 250 g/ha, Postemergence
  Plant response rating (0 to 10; 0 is no effect, 10 is complete control), B. signalgrass: 0
Surinam grass; [5]
  B. signalgrass plant response rating: 0
Wild oat; [1]
  Wild oats plant response rating: 0
Wild oat; [2]
  Wild oats plant response rating: 2
Wild oat; [3]
  Plant response rating, Wild oats: 5
Wild oat; [4]
  Wild oats plant response rating: 0
Wild oat; [5]
  Wild oats plant response rating: 0
bedstraw; [1]
  Bedstraw plant response rating: 0
bedstraw; [2]
  Bedstraw plant response rating: 0
bedstraw; [3]
  Plant response rating, Bedstraw: 0
bedstraw; [6]
  Bedstraw plant response rating: 0
bedstraw; [7]
  Bedstraw plant response rating: 2
bedstraw; [4]
  Bedstraw plant response rating: 0
bedstraw; Rate 250 g/ha, Postemergence
  Plant response rating (0 to 10; 0 is no effect, 10 is complete control), Bedstraw: 3
bedstraw; [5]
  Bedstraw plant response rating: 8
soybean; [1]
  Soybean plant response rating: 0
soybean; [2]
  Soybean plant response rating: 0
soybean; [3]
  Plant response rating, Soybean: 0
soybean; [4]
  Soybean plant response rating: 0
soybean; [5]
  Soybean plant response rating: 4
rice; [8]
  Rice plant response rating: 0
rice; [9]
  Rice plant response rating: 0
rice; [10]
  Rice plant response rating: 0
rice; [11]
  Rice plant response rating: 0
bamyardgrass; [8]
  Barnyardgrass plant response rating: 0
bamyardgrass; [9]
  Barnyardgrass plant response rating: 0
bamyardgrass; [10]
  Barnyardgrass plant response rating: 0
bamyardgrass; [11]
  Barnyardgrass plant response rating: 0
cocklebur; [1]
  Cocklebur plant response rating: 0
cocklebur; [2]
  Cocklebur plant response rating: 0
cocklebur; [6]
  Cocklebur plant response rating: 0
cocklebur; [7]
  Cocklebur plant response rating: 0
cocklebur; [4]
  Cocklebur plant response rating: 0
cocklebur; Rate 250 g/ha, Postemergence
  Plant response rating (0 to 10; 0 is no effect, 10 is complete control), Cocklebur: 0
cocklebur; [5]
  Cocklebur plant response rating: 0
Smallflower flatsedge; [8]
  S. Flatsedge plant response rating: 0
Smallflower flatsedge; [9]
  S. Flatsedge plant response rating: 0
Smallflower flatsedge; [10]
  S. Flatsedge plant response rating: 0
Smallflower flatsedge; [11]
  S. Flatsedge plant response rating: 0
morningglory; [1]
  Morningglory plant response rating: 0
morningglory; [2]
  Morningglory plant response rating: 0
morningglory; [3]
  Plant response rating, Morningglory: 0
morningglory; [4]
  Morningglory plant response rating: 0
morningglory; Rate 250 g/ha, Postemergence
  Plant response rating (0 to 10; 0 is no effect, 10 is complete control), Morningglory: 6
morningglory; [5]
  Morningglory plant response rating: 8
Sugar beet; [1]
  Sugarbeets plant response rating: 0
Sugar beet; [2]
  Sugarbeets plant response rating: 0
Sugar beet; [3]
  Plant response rating, Sugarbeets: 0
Sugar beet; [4]
  Sugarbeets plant response rating: 0
Sugar beet; [5]
  Sugarbeets plant response rating: 3
